Measurements reported in ChEMBL document CHEMBL5518218, “Discovery of Novel PD-L1 Small-Molecular Inhibitors with Potent In Vivo Anti-tumor Immune Activity” (J Med Chem, 2024).
Converted amounts (≈) assume the structure as drawn. Each block holds one compound with its values, some of them ahead of it. The source made the active and inactive calls. The rule behind the calls is not given here.

Columns and labels:
[1] = target: T1, Programmed cell death protein 1/Programmed cell death 1 ligand 1 (Homo sapiens, UniProt Q9NZQ7); test: Inhibition of PD-1/PD-L1 interaction (unknown origin) incubated for 15 min by HTRF assay; format: protein-complex assay
[2] = target: T2, Programmed cell death protein 1/Programmed cell death 1 ligand 1 (Homo sapiens, UniProt Q15116+Q9NZQ7); test: (§1) Inhibition of interaction of human PD-1 expressed in Jurkat T cells co-transfected with NFAT/human PD-L1 expressed in CHO-K1 cells co-expressing aAPC preincubated with CHO-K1 cells followed by Jurkat cell addition and measured after 6 hrs by automated microplate spectrophotometer analysis; format: cell-based; details: cho-k1
[3] = test system: Jurkat; test: Cytotoxicity against human Jurkat cells expressing PD-1 assessed as reduction in cell viability at 50 uM incubated for 6 hrs by CCK-8 assay; format: functional, cell-based
[4] = test system: CHO-K1; test: Cytotoxicity against […] cells expressing PD-L1 assessed as reduction in cell viability at 50 uM incubated for 6 hrs by CCK-8 assay; format: toxicity, cell-based, Cricetulus griseus; details: chinese hamster, cho-k1, 6 h
[5] = target: T1, Programmed cell death protein 1/Programmed cell death 1 ligand 1; test: as §1; format: cell-based
[6] = Mutagenicity in Salmonella typhimurium TA100 by mini-Ames test; format: toxicity; details: salmonella enterica subsp. enterica serovar typhimurium
[7] = Half life in Sprague-Dawley rat at 50 mg/kg, po measured upto 24 hrs by LC-MS/MS analysis; format: ADME, organism-based; details: in vivo
[8] = Cmax in Sprague-Dawley rat at 50 mg/kg, po measured upto 24 hrs by LC-MS/MS analysis; format: ADME, organism-based; details: in vivo
[9] = Mutagenicity in Salmonella typhimurium TA98 by mini-Ames test; format: toxicity; details: salmonella enterica subsp. enterica serovar typhimurium
[10] = test system: CT26; test: Cytotoxicity against mouse CT26 cells assessed as effect on cell viability at 0.07 to 150 uM incubated for 48 hrs by CCK-8 assay; format: functional, cell-based; details: dose 0.07-150 µM
[11] = test system: PBMC; test: Induction of antitumor immunity in human PBMC cells expressing PD-L1 assessed as increase in IL-2 expression incubated for 12 hrs by ELISA analysis; format: functional, cell-based; details: dose 0.1-10 µM
[12] = Stability in human liver microsomes assessed as half life; format: ADME, Microsome
[13] = target: Programmed cell death 1 ligand 1 (Homo sapiens, UniProt Q9NZQ7); test: Binding affinity to his-tagged human PD-L1 assessed as dissociation constant by SPR analysis
[14] = Lipophilicity, log D of the compound at pH 7.4; format: physicochemical; details: buffer
[15] = target: Programmed cell death 1 ligand 1 (Mus musculus, UniProt Q9EP73); test: Binding affinity to his-tagged mouse PD-L1 assessed as dissociation constant by SPR analysis
[16] = test system: CHO-K1; test: Reduction in cell surface PD-L1 expression in CHO-K1 cells expressing aAPC at 10 uM incubated for 24 hrs by immunofluorescence based microscopic analysis; format: functional; details: Cricetulus griseus
[17] = target: T2, Programmed cell death protein 1/Programmed cell death 1 ligand 1; test: as §1, with “aAPC assessed as maximum relative light unit” for “aAPC”; format: cell-based
[18] = test system: CHO-K1; test: Reduction in cell surface PD-L1 expression in CHO-K1 cells expressing aAPC incubated for 24 hrs by flow cytometry analysis; format: functional, cell-based; details: Cricetulus griseus, dose 0.1-10 µM
[19] = test system: PBMC; test: Induction of antitumor immunity in human PBMC cells expressing PD-L1 assessed as increase in IFN-gamma expression incubated for 12 hrs by ELISA analysis; format: functional, cell-based; details: dose 0.1-10 µM
[20] = target: Programmed cell death protein 1 (Homo sapiens) (UniProt Q15116); test: Inhibition of human PD-1 expressed in Jurkat T cells co-transfected with NFAT by automated microplate spectrophotometer analysis; format: cell-based
[21] = Tmax in Sprague-Dawley rat at 50 mg/kg, po measured upto 24 hrs by LC-MS/MS analysis; format: ADME, organism-based; details: in vivo
[22] = Water solubility of the compound; format: physicochemical
[23] = AUC (0 to t) in Sprague-Dawley rat at 50 mg/kg, po measured upto 24 hrs by LC-MS/MS analysis; format: ADME, organism-based; details: in vivo
[24] = test system: MC-38; test: Cytotoxicity against mouse MC38 cells assessed as effect on cell viability at 0.07 to 150 uM incubated for 48 hrs by CCK-8 assay; format: functional, cell-based; details: dose 0.07-150 µM
[25] = test system: CHO-K1; test: Induction of PD-L1 internalization in CHO-K1 cells assessed as increase in PD-L1 concentration in cytoplasm at 10 uM incubated for 12 hrs by DIL-staining based confocal microscopic analysis analysis; format: functional, cell-based; details: Cricetulus griseus
[26] = test system: PBMC; test: Induction of antitumor immunity in human PBMC cells assessed as increase in IFN-gamma expression at 0.1 to 10 uM incubated for 12 hrs by ELISA analysis; format: functional, cell-based; details: dose 0.1-10 µM
[27] = test system: CHO-K1; test: Induction of PD-L1 internalization in CHO-K1 cells assessed as increase in PD-L1 concentration in nucleus at 10 uM incubated for 12 hrs by DIL-staining based confocal microscopic analysis analysis; format: functional, cell-based; details: Cricetulus griseus
[28] = target: Voltage-gated inwardly rectifying potassium channel KCNH2 (Homo sapiens, UniProt Q12809); test: Inhibition of hERG upto 30 uM; format: toxicity
[29] = test system: MC-38; test: Antitumor activity against mouse MC38 cells implanted in C57BL/6J mouse assessed as tumor growth inhibition at 5 mg/kg, po measured for 20 days; format: functional; details: MC-38, 480 h, time 20 day, read-out: TGI

T1 sequence (Q15116 whole entry): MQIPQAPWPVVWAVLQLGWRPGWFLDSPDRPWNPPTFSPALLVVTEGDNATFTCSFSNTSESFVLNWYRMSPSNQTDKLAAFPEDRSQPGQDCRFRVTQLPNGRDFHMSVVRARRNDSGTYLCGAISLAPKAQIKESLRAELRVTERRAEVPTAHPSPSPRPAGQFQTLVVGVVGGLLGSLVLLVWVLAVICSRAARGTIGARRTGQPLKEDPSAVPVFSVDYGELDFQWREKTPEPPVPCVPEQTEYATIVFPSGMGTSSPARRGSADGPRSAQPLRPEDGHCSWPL
T1 sequence (Q9NZQ7 whole entry): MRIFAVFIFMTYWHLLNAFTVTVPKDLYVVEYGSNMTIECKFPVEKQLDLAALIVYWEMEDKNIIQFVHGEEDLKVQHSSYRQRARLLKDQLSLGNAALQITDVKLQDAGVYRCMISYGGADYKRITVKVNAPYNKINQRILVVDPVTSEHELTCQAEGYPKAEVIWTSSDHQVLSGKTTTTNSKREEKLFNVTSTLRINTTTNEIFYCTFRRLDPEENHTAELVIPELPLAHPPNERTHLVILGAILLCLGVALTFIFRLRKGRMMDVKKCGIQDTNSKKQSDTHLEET
Chain of Programmed cell death protein 1 (Homo sapiens) (Q15116 whole entry): as the sequence (Q15116 whole entry) above
Chain of Programmed cell death 1 ligand 1 (Homo sapiens, UniProt Q9NZQ7) (Q9NZQ7 whole entry): as the sequence (Q9NZQ7 whole entry) above
T2 sequence (Q15116 whole entry): as the sequence (Q15116 whole entry) above
T2 sequence (Q9NZQ7 whole entry): as the sequence (Q9NZQ7 whole entry) above
Chain of Voltage-gated inwardly rectifying potassium channel KCNH2 (Q12809 whole entry): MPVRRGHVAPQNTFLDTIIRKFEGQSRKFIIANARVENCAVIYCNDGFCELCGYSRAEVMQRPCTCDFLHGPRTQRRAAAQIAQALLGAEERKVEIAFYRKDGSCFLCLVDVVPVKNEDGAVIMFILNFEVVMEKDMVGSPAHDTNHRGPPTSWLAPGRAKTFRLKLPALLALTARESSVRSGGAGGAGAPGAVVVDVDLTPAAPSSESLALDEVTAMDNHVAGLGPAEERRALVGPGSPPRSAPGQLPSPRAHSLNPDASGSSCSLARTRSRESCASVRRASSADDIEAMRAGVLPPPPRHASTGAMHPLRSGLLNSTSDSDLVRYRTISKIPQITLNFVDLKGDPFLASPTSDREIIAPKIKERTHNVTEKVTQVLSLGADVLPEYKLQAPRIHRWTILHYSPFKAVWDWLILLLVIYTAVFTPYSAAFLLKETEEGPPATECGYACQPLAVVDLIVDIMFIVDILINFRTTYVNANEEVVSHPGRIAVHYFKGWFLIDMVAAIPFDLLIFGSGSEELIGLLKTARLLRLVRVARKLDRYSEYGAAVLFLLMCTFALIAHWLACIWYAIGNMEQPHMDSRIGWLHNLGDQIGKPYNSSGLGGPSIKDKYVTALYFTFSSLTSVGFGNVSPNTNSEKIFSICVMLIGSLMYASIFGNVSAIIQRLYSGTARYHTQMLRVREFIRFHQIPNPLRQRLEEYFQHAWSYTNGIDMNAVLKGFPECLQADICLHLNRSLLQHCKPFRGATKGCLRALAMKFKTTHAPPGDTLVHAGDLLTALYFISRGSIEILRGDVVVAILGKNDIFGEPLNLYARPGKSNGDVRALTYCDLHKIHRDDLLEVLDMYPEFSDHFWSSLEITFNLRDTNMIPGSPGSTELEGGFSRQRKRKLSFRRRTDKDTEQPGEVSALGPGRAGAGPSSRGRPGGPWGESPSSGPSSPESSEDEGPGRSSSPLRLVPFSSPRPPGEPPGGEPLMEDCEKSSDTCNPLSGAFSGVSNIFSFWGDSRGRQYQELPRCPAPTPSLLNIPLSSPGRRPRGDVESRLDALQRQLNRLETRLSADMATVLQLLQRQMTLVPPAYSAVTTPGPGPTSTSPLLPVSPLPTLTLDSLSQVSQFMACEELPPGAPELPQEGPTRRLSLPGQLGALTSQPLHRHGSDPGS
Chain of Programmed cell death 1 ligand 1 (Mus musculus, UniProt Q9EP73) (Q9EP73 whole entry): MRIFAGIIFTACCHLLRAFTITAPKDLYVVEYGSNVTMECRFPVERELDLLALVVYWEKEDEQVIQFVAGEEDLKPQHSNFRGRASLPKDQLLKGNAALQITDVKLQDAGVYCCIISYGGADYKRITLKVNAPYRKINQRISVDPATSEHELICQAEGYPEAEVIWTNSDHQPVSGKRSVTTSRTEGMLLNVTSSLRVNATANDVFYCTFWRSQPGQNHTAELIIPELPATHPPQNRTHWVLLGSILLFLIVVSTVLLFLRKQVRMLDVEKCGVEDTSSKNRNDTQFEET

SMILES: O=C(O)[C@@H](CO)NCc1cc(Cl)c(OCc2cccc(-c3cccc(OCCCNCCO)c3)c2Cl)cc1OCc1ccc2nonc2c1
IC50 [1]: 6.1 nM

SMILES: O=C(O)[C@@H](CO)NCc1cc(Cl)c(OCc2cccc(-c3cccc(OCCCCN4CCC(O)CC4)c3)c2Cl)cc1OCc1ccc2nonc2c1
IC50 [1]: 3.3 nM

SMILES: O=C(O)[C@@H](CO)NCc1cc(Cl)c(OCc2cccc(-c3cccc(OCCCN4CCOCC4)c3)c2Cl)cc1OCc1ccc2nonc2c1
IC50 [1]: 34.7 nM

SMILES: O=C(O)[C@@H](CO)NCc1cc(Cl)c(OCc2cccc(-c3cccc(OCCN4CCOCC4)c3)c2Cl)cc1OCc1ccc2nonc2c1
IC50 [1]: 121 nM

SMILES: CCN(CC)C(=O)CCOc1cccc(-c2cccc(COc3cc(OCc4ccc5nonc5c4)c(CN[C@H](CO)C(=O)O)cc3Cl)c2Cl)c1
EC50 [2]: Not Active | IC50 [1]: 187 nM | Activity [3]: Active | Activity [4]: Non-Toxic

half-life [7]: 5.3 h | Cmax [8]: 45.6 ng/mL | half-life [12]: 1.95 h | logD [14]: 0.67 | Tmax [21]: 6 min | solubility [22]: 23.6 µM (≈ 17.4 µg/mL) | AUC(0-t) at 24 h [23]: 82.1 ng·h/mL
SMILES: O=C(O)[C@@H](CO)NCc1cc(Cl)c(OCc2cccc(-c3cccc(OCCCN4CCC(O)CC4)c3)c2F)cc1OCc1ccc2nonc2c1
EC50 [5]: 153 nM | IC50 [1]: 13 nM | Activity [6]: Non-Toxic | Activity [9]: Non-Toxic | Activity [10]: inactive | Activity [11]: Dose-Dependent Effect | Kd [13]: 2 nM | Activity [3]: Active | Activity [4]: Non-Toxic | Kd [15]: 31.8 nM | Activity [16]: Active | Activity [17]: 2.3 RLU | Activity [18]: Dose-Dependent Effect | Activity [19]: Dose-Dependent Effect | inhibition [20]: inactive | Activity [24]: inactive | Activity [25]: Active | Activity [26]: inactive | Activity [27]: Active | inhibition (INH) [28]: Not Active

SMILES: O=C(O)[C@@H](CO)NCc1cc(Cl)c(OCc2cccc(-c3cccc(OCCCCN4CCNCC4)c3)c2Cl)cc1OCc1ccc2nonc2c1
IC50 [1]: 42.1 nM

SMILES: O=C(O)[C@@H](CO)NCc1cc(Cl)c(OCc2cccc(-c3cccc(OCCCN4CCC(O)CC4)c3)c2Cl)cc1OCc1ccc2nonc2c1
EC50 [5]: 158 nM | IC50 [1]: 2.02 nM | Kd [13]: 22.9 nM | Activity [3]: Active | Activity [4]: Non-Toxic | Activity [17]: 2.2 RLU | inhibition [20]: inactive

SMILES: O=C(O)[C@@H](CO)NCc1cc(Cl)c(OCc2cccc(-c3cccc(OCCN4CCC(O)CC4)c3)c2Cl)cc1OCc1ccc2nonc2c1
IC50 [1]: 40.5 nM

SMILES: O=C(O)[C@@H](CO)NCc1cc(Cl)c(OCc2cccc(-c3cccc(OCCCCN4CCOCC4)c3)c2F)cc1OCc1ccc2nonc2c1
IC50 [1]: 21.2 nM

SMILES: O=C(O)C1CCN(CCCCOc2cccc(-c3cccc(COc4cc(OCc5ccc6nonc6c5)c(CN[C@H](CO)C(=O)O)cc4Cl)c3Cl)c2)CC1
IC50 [1]: 8.8 nM

SMILES: O=C(O)[C@@H](CO)NCc1cc(Cl)c(OCc2cccc(-c3cccc(OCCCNCCN4CCCCC4)c3)c2Cl)cc1OCc1ccc2nonc2c1
IC50 [1]: 23.8 nM

SMILES: O=C(O)[C@@H](CO)NCc1cc(Cl)c(OCc2cccc(-c3cccc(OCCCNS(=O)(=O)N4CCOCC4)c3)c2Cl)cc1OCc1ccc2nonc2c1
IC50 [1]: 87.6 nM

SMILES: COP(=O)(NCCCOc1cccc(-c2cccc(COc3cc(OCc4ccc5nonc5c4)c(CN[C@H](CO)C(=O)O)cc3Cl)c2Cl)c1)OC
IC50 [1]: 746 nM

SMILES: CCN(CC)CCCOc1cccc(-c2cccc(COc3cc(OCc4ccc5nonc5c4)c(CN[C@H](CO)C(=O)O)cc3Cl)c2Cl)c1
IC50 [1]: 78.3 nM

SMILES: O=C(O)[C@@H](CO)NCc1cc(Cl)c(OCc2cccc(-c3ccccc3)c2Br)cc1OCc1ccc2nonc2c1 [listing 1 of 3 here]
Activity [3]: Active | Activity [17]: 1.8 RLU | inhibition [20]: inactive

SMILES: O=C(O)[C@@H](CO)NCc1cc(Cl)c(OCc2cccc(-c3cccc(OCCCCN4CCC(CO)CC4)c3)c2Cl)cc1OCc1ccc2nonc2c1
IC50 [1]: 3.5 nM

SMILES: O=C(O)[C@@H](CO)NCc1cc(Cl)c(OCc2cccc(-c3cccc(OCCCN(CCO)CCO)c3)c2Cl)cc1OCc1ccc2nonc2c1
EC50 [5]: 353 nM | IC50 [1]: 5.4 nM | Kd [13]: 34.1 nM | Activity [3]: Active | Activity [4]: Non-Toxic | Activity [17]: 2 RLU | inhibition [20]: inactive

SMILES: O=C(O)[C@@H](CO)NCc1cc(Cl)c(OCc2cccc(-c3ccccc3)c2Br)cc1OCc1ccc2nonc2c1 [listing 2 of 3 here]
inhibition in vivo at 5 mg/kg [29]: 52.5%

SMILES: O=C(O)[C@@H](CO)NCc1cc(Cl)c(OCc2cccc(-c3cccc(OCCN(CCO)CCO)c3)c2Cl)cc1OCc1ccc2nonc2c1
IC50 [1]: 109 nM

SMILES: O=C(O)[C@@H](CO)NCc1cc(Cl)c(OCc2cccc(-c3cccc(OCCCCN4CCC(O)CC4)c3)c2F)cc1OCc1ccc2nonc2c1
IC50 [1]: 3.1 nM

SMILES: O=C(O)[C@@H](CO)NCc1cc(Cl)c(OCc2cccc(-c3cccc(OCCCN4CCOCC4)c3)c2F)cc1OCc1ccc2nonc2c1
IC50 [1]: 12.5 nM

SMILES: O=C(O)[C@@H](CO)NCc1cc(Cl)c(OCc2cccc(-c3ccccc3)c2Br)cc1OCc1ccc2nonc2c1 [listing 3 of 3 here]
Activity [4]: Non-Toxic

SMILES: O=C(O)[C@@H](CO)NCc1cc(Cl)c(OCc2cccc(-c3cccc(OCCCCN(CCO)CCO)c3)c2Cl)cc1OCc1ccc2nonc2c1
IC50 [1]: 8.2 nM
